Assay results taken from patent US5464617A, “β-lactam compounds” (Hoffmann-La Roche Inc., priority 1994, dated 1995).
In brackets after ≈: the same amount, converted by molar mass. Where a name gives a salt, the structure may show the parent alone.

Experiments:
[1] = system: Citrobacter freundii 1982; experiment: MIC in vitro of a 1:4 combination of ceftriaxone with a compound of formula I (Test D); format: cell-based; details: 1:4 combination of ceftriaxone with the compound; for MIC C. freundii 1982 (D): Table 4, test D
Procedure: The minimum inhibitory concentration in vitro ([…]) of a 1:4 combination of ceftriaxone with a compound of formula I against Citrobacter freundii 1982 was measured and compiled in Table 2 hereinafter.

E. coli 1346 = experiment: Antibacterial activity of the products per se, serial dilution method in liquid medium (Test E); format: cell-based; details: product per se; for MIC E. coli 1346 (E): Table 4, test E
Excerpt: The antibacterial activity of the products per se is illustrated on the basis of Table 3 hereinafter, the minimum inhibitory concentration […] in vitro against E. coli 1346 being determined using the serial dilution method in liquid medium: […]

SMILES | MIC C. freundii 1982 (D) [1] [µg/mL] | MIC E. coli 1346 (E) (E. coli 1346) [µg/mL] | MIC C. freundii 1982 ([1]; Table 2) [µg/mL] | MIC E. coli 1346 (E. coli 1346; Table 3, liquid medium) [µg/mL]
O=C(O)C1=C(CSc2ccnc3c2CCC3)S[C@@H]2CN(C(=O)Nc3ccc(O)cc3)[C@@H]3C(=O)N1[C@@H]32 [41(a), (1aS,3aR,6bS)-2-(4-Hydroxy-phenylcarbamoyl)-5-(6,7-dihydro-5H-1-pyrindin-4-ylsulphanylmethyl)-1-oxo-4-thia-1,1a,2,3,3a,6b-hexahydro-2,6a-diazacyclobut[cd]indene-6-carboxylic acid sodium salt] | 2 | > 32 |  | 
O=C(O)C1=C(CSc2ccncc2)O[C@@H]2CN[C@@H]3C(=O)N1[C@@H]32 [Example 29(b), (1aS,3aR,6bS)-1-Oxo-5-(pyridin-4-ylsulphanylmethyl)-1,1a,2,3,3a,6b-hexahydro-4-oxa-2,6a-diazacyclobut[cd]indene-6-carboxylic acid] | 2 | > 16 |  | 
NC(=O)CSC1=C(C(=O)O)N2C(=O)[C@@H]3[C@H]2[C@H](C1)CN3C(=O)C(F)(F)F [3(al), (1aS,3aR,6bR)-5-Carbamoylmethylsulphanyl-1-oxo-2-trifluoroacetyl-1a,2,3,3a,4,6b-hexahydro-1H-2,6a-diazacyclobut[cd]indene-6-carboxylic acid sodium salt] | 2 | 8 |  | 
N#C/C=C/C1=C(C(=O)O)N2C(=O)[C@@H]3[C@H]2[C@H](C1)CN3C(=O)Nc1ccc(O)cc1 [49(b), (E)-(1aS,3aR,6bR)-5-(2-Cyanovinyl)-2-(4-hydroxyphenylcarbamoyl)-1-oxo-1a,2,3,3a,4,6b-hexahydro-1H-2,6a-diazacyclobut[cd]indene-6-carboxylic acid sodium salt] | 1 | 4 |  | 
CC(=O)N1C[C@H]2CC(CSc3cc[n+](CC(=O)[O-])cc3)=C(C(=O)O)N3C(=O)[C@@H]1[C@@H]23 [52(a), (1aS,3aR,6bR)-[4-(2-Acetyl-6-carboxy-1-oxo-1a,2,3,3a,4,6b-hexahydro-1H-2,6a-diaza-cyclobut[cd]inden-5-yl-methylsulphanyl)-pyridinio]-acetate bromoacetate (1:3.18) sodium salt (1:4.18)] | 4 | 8 |  | 
CC(=O)NCC1=C(C(=O)O)N2C(=O)[C@@H]3[C@H]2[C@H](C1)CN3C(=O)Nc1ccc(O)cc1 [Example 85, (1aS,3aR,6bR)-5-Acetylaminomethyl-2-(4-hydroxy-phenylcarbamoyl)-1-oxo-1a,2,3,3a,4,6b-hexahydro-1H-2,6a-diazacyclobut[cd]indene-6-carboxylic acid sodium salt] | 0.5 | > 32 |  | 
O=C([O-])C[n+]1ccc(SCC2=C(C(=O)O)N3C(=O)[C@@H]4[C@H]3[C@H](C2)CN4C(=O)NCc2ccccc2)cc1 [Example 51, (1aS,3aR,6bR)-[4-(2-Benzylcarbamoyl-6-carboxy-1-oxo-1a,2,3,3a,4,6b-hexahydro-1H-2,6a-diazacyclobut[cd]inden-5-ylmethylsulphanyl)-pyridin-2-ylio]-acetate sodium salt] | 1 | > 32 |  | 
[N-]=[N+]=NCC1=C(C(=O)O)N2C(=O)[C@@H]3[C@H]2[C@H](C1)CN3C(=O)C(F)(F)F [83(b), (1aS,3aR,6bR)-5-Azidomethyl-2-trifluoroacetyl-1-oxo-1a,2,3,3a,4,6b-hexahydro-1H-2,6a-diazacyclobut[cd]indene-6-carboxylic acid sodium salt] | 0.5 | 0.5 |  | 
CC(=O)N1C[C@H]2CC(Sc3ccncc3)=C(C(=O)O)N3C(=O)[C@@H]1[C@@H]23 [Example 3(ah), (1aS,3aR,6bR)-2-Acetyl-1-oxo-5-(pyridin-4-ylsulphanyl)-1a,2,3,3a,4,6b-hexahydro-1H-2,6a-diazacyclobut[cd]indene-6-carboxylic acid sodium salt] | 2 | 8 |  | 
Cc1nnc(SCC2=C(C(=O)O)N3C(=O)[C@@H]4[C@H]3[C@H](C2)CN4C(=O)Nc2ccc(O)cc2)s1 [Example 64, (1aS,3aR,6bR)-2-(4-Hydroxy-phenylcarbamoyl)-5-(5-methyl-1,3,4-thiadiazol-2-ylsulphanylmethyl)-1-oxo-1a,2,3,3a,4,6b-hexahydro-1H-2,6a-diazacyclobut[cd]indene-6-carboxylic acid sodium salt] | 0.5 | > 32 |  | 
CNC(=O)OCC1=C(C(=O)O)N2C(=O)[C@@H]3[C@H]2[C@H](C1)CN3C(C)=O [98(a), (1aS,3aR,6bR)-2-Acetyl-5-methylcarbamoyloxymethyl-1-oxo-1a,2,3,3a,4,6b-hexahydro-1H-2,6a-diazacyclobut[cd]indene-6-carboxylic acid sodium salt] | 1 | 2 |  | 

More lines, now with the values ahead:

MIC C. freundii 1982 (D) [1] [µg/mL] | MIC E. coli 1346 (E) (E. coli 1346) [µg/mL] | MIC C. freundii 1982 ([1]; Table 2) [µg/mL] | MIC E. coli 1346 (E. coli 1346; Table 3, liquid medium) [µg/mL] | SMILES
4 | 8 (≈ 21.8 µM) |  |  | NC(=O)Cn1nnnc1SCC1=C(C(=O)O)N2C(=O)[C@H]3NC[C@@H](O1)[C@H]32 [Example 29(j), (1aS,3aR,6bS)-5-(1-Carbamoylmethyl-1H-tetrazol-5-ylsulphanylmethyl)-1-oxo-1,1a,2,3,3a,6b-hexahydro-4-oxa-2,6a-diazacyclobut[cd]indene-6-carboxylic acid]
 |  | 4 | 8 | COC(=O)CC1=C(C(=O)O)N2C(=O)[C@H]3NC[C@@H](C1)[C@H]32 [Example 12(b), (1aS,3aR,6bR)-5-Methoxycarbonylmethyl-1-oxo-1a,2,3,3a,4,6b-hexahydro-1H-2,6a-diazacyclobut[cd]indene-6-carboxylic acid trifluoroacetate]
0.25 | 0.5 |  |  | Cn1nnnc1SCC1=C(C(=O)O)N2C(=O)[C@@H]3[C@H]2[C@H](C1)CN3C=O [Example 19(k), (1aS,3aR,6bR)-2-Formyl-5-(1-methyl-1H-tetrazol-5-ylsulphanylmethyl)-1-oxo-1a,2,3,3a,4,6b-hexahydro-1H-2,6a-diazacyclobut[cd]indene-6-carboxylic acid sodium salt]
4 | > 32 |  |  | Cn1nnnc1CSCC1=C(C(=O)O)N2C(=O)[C@H]3NC[C@@H](S1)[C@H]32 [Example 43, (1aS,3aR,6bS)-5-(1-Methyl-1H-tetrazol-5-ylmethylsulphanylmethyl)-1-oxo-4-thia-1,1a,2,3,3a,6 b-hexahydro-2,6a-diazacyclobut-[cd]indene-6-carboxylic acid sodium salt]
0.5 | 1 |  |  | NC(=O)Cn1nnnc1SCC1=C(C(=O)O)N2C(=O)[C@@H]3[C@H]2[C@H](C1)CN3C(=O)C(F)(F)F [70(b), (1aS,3aR,6bR)-5-(1-Carbamoylmethyl-1H-tetrazol-5-ylsulphanylmethyl)-2-trifluoroacetyl-1-oxo-1a,2,3,3a,4,6b-hexahydro-1H-2,6a-diazacyclobut[cd]indene-6-carboxylic acid sodium salt]
0.5 | 16 (≈ 47 µM) |  |  | Cn1nnnc1SCC1=C(C(=O)O)N2C(=O)[C@H]3NC[C@@H](S1)[C@H]32 [Example 40(a), (1aS,3aR,6bS)-5-(1-Methyl-1H-tetrazol-5-ylsulphanylmethyl)-1-oxo-4-thia-1,1a,2,3,3a,6b-hexahydro-2,6a-diazacyclobut[cd]indene-6-carboxylic acid]
